Biological target: T1, human Keap1 kelch domain (amino acids Ala321-Thr609) (Homo sapiens, UniProt Q14145)
T1 construct: human Keap1 kelch domain (amino acids Ala321-Thr609)
Test: Keap1-Nrf2 peptide binding assay (fluorescence polarisation)
Conditions: binding to fluorescently labeled human Nrf2 peptide; 20 nM Keap1 kelch domain, 50 nM peptide
Protocol: Keap1-Nrf2 peptide binding assay
Two microliters of test compound in reaction buffer (phosphate-buffered saline, 2 mM DL-dithiothreitol, 0.015 % (v/v) Brij-35) containing 6 % (v/v) DMSO were mixed with two microliters of the Keap1 kelch domain in reaction buffer in a black 384-well small volume microtiter plate and incubated at ambient temperature for 15 minutes. Thereafter, two microliters were added of the fluorescently labeled Nrf2 peptide in reaction buffer, and the mixture was incubated for a further 30 minutes at ambient temperature. Final concentrations of the Keap1 kelch domain and the fluorescently labeled Nrf2 peptide were 20 nM and 50 nM, respectively.
Fluorescence polarization (FP) was measured at excitation and emission wavelengths of 635 nm and 660 nm, respectively. Positive controls for binding (two microliters of reaction buffer containing 6 % (v/v) DMSO instead of test compound in the same buffer) and negative controls (as positive controls, but without Keap1 kelch domain) were included on each microtiter plate.

T1 sequence (Q14145 321-609): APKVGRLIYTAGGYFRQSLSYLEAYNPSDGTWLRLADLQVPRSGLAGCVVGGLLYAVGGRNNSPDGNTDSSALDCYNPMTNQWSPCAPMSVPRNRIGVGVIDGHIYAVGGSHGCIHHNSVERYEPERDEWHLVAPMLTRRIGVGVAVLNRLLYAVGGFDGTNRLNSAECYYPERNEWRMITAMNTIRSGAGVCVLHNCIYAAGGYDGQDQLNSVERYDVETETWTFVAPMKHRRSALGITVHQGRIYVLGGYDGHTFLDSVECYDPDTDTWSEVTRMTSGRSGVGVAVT

Row | SMILES | IC50
1 | O=C(O)[C@H]1CCN(c2ccc(NS(=O)(=O)c3ccc(Cl)c(C(F)(F)F)c3)c3ccccc23)C1 [Example 23, (3S)-1-[4-[[4-chloro-3-(trifluoromethyl)phenyl]sulfonylamino]-1-naphthyl]pyrrolidine-3-carboxylic acid] | 8500 nM
2 | O=C(O)[C@H]1CCN(c2ccc(NS(=O)(=O)c3cccc(Cl)c3Cl)c3ccccc23)C1 [Example 20, (3S)-1-[4-[(2,3-dichlorophenyl)sulfonylamino]-1-naphthyl]pyrrolidine-3-carboxylic acid] | 8600 nM
3 | Cc1nn(-c2ccccc2)c(C)c1S(=O)(=O)Nc1ccc(N2CC[C@@H](C(=O)O)C2)c2ccccc12 [Example 42, (3R)-1-[4-[(3,5-dimethyl-1-phenyl-pyrazol-4-yl)sulfonylamino]-1-naphthyl]pyrrolidine-3-carboxylic acid] | 3000 nM
4 | O=C(O)[C@H]1CCN(c2ccc(NS(=O)(=O)c3cc(Cl)ccc3Cl)c3ccccc23)C1 [Example 28, (3S)-1-[4-[(2,5-dichlorophenyl)sulfonylamino]-1-naphthyl]pyrrolidine-3-carboxylic acid] | 5800 nM
5 | Cc1ccc(Cl)cc1S(=O)(=O)Nc1ccc(N2CC[C@@H](C(=O)O)C2)c2ccccc12 [Example 43, (3R)-1-[4-[(5-chloro-2-methylphenyl)sulfonylamino]-1-naphthyl]pyrrolidine-3-carboxylic acid] | 1200 nM
6 | Cc1c(S(=O)(=O)Nc2ccc(N3CC[C@@H](C(=O)O)C3)c3ccccc23)cnn1CC(C)C [Example 49, (3R)-1-[4-[(1-isobutyl-5-methyl-pyrazol-4-yl)sulfonylamino]-1-naphthyl]pyrrolidine-3-carboxylic acid] | 2900 nM
7 | Cc1nn(C)c(Cl)c1S(=O)(=O)Nc1ccc(N2CC[C@@H](C(=O)O)C2)c2ncccc12 [Example 52, (3R)-1-[5-[(5-chloro-1,3-dimethyl-pyrazol-4-yl)sulfonylamino]-8-quinolyl]pyrrolidine-3-carboxylic acid] | 2700 nM
8 | O=C(O)[C@@H]1CCN(c2ccc(NS(=O)(=O)c3cccc4c3OCCO4)c3ccccc23)C1 [Example 74, (3R)-1-[4-(2,3-dihydro-1,4-benzodioxin-5-ylsulfonylamino)-1-naphthyl]pyrrolidine-3-carboxylic acid] | 9100 nM
9 | Cc1nn(-c2ccccc2)c(C)c1S(=O)(=O)Nc1ccc(N2CC[C@H](C(=O)O)C2)c2ccccc12 [Example 25, (3S)-1-[4-[(3,5-dimethyl-1-phenyl-pyrazol-4-yl)sulfonylamino]-1-naphthyl]pyrrolidine-3-carboxylic acid] | 4100 nM
10 | O=C(O)[C@@H]1CCN(c2ccc(NS(=O)(=O)c3cc(F)c(F)cc3Cl)c3ccccc23)C1 [Example 45, (3R)-1-[4-[(2-chloro-4,5-difluorophenyl)sulfonylamino]-1-naphthyl]pyrrolidine-3-carboxylic acid] | 4500 nM
11 | Cc1nc(C)c(S(=O)(=O)Nc2ccc(N3CC[C@H](C(=O)O)C3)c3ccccc23)s1 [Example 24, (3S)-1-[4-[(2,4-dimethylthiazol-5-yl)sulfonylamino]-1-naphthyl]pyrrolidine-3-carboxylic acid] | 4300 nM

Same assay, conditions: binding to fluorescently labeled human Nrf2 peptide; 20 nM Keap1 kelch domain, 50 nM peptide; read-out: IC50

Row | SMILES | IC50
12 | Cc1cc(C)c(C)c(S(=O)(=O)Nc2ccc(N3CCC(C)(C(=O)O)C3)c3ccccc23)c1C (stereo not drawn) [Example 9, 3-methyl-1-[4-[(2,3,5,6-tetramethylphenyl)sulfonylamino]-1-naphthyl]pyrrolidine-3-carboxylic acid] | 800 nM
13 | O=C(O)[C@@H]1CCN(c2ccc(NS(=O)(=O)c3cc(Cl)sc3Cl)c3ccccc23)C1 [Example 34, (3R)-1-[4-[(2,5-dichloro-3-thienyl)sulfonylamino]-1-naphthyl]pyrrolidine-3-carboxylic acid] | 2900 nM
14 | Cc1nn(C)c(Cl)c1S(=O)(=O)Nc1ccc(N2CCC(C(=O)O)C2)c2ccccc12 (stereo not drawn) [Example 4, 1-[4-[(5-chloro-1,3-dimethyl-pyrazol-4-yl)sulfonylamino]-1-naphthyl]pyrrolidine-3-carboxylic acid] | 1200 nM
15 | Cc1cc(C)c(C)c(S(=O)(=O)Nc2ccc(N3CCC[C@@H](C(=O)O)C3)c3ccccc23)c1C [Example 58, (3R)-1-[4-[(2,3,5,6-tetramethylphenyl)sulfonylamino]-1-naphthyl]piperidine-3-carboxylic acid] | 270 nM
16 | Cc1c(Cl)cccc1S(=O)(=O)Nc1ccc(N2CC[C@@H](C(=O)O)C2)c2ccccc12 [Example 32, (3R)-1-[4-[(3-chloro-2-methylphenyl)sulfonylamino]-1-naphthyl]pyrrolidine-3-carboxylic acid] | 800 nM
17 | Cc1cc(C)c(C)c(S(=O)(=O)Nc2ccc(C3CCCC3C(=O)O)c3ccccc23)c1C (stereo not drawn) [Example 1, 2-[4-[(2,3,5,6-tetramethylphenyl)sulfonylamino]-1-naphthyl]cyclopentanecarboxylic acid] | 3100 nM
18 | Cc1c(S(=O)(=O)Nc2ccc(N3CC[C@@H](C(=O)O)C3)c3ncccc23)sc2cccc(F)c12 [Example 70, (3R)-1-[5-[(4-fluoro-3-methyl-benzothiophen-2-yl)sulfonylamino]-8-quinolyl]pyrrolidine-3-carboxylic acid] | 300 nM
19 | O=C(O)[C@H]1CCN(c2ccc(NS(=O)(=O)c3cc(Cl)cc(Cl)c3)c3ccccc23)C1 [Example 17, (3S)-1-[4-[(3,5-dichlorophenyl)sulfonylamino]-1-naphthyl]pyrrolidine-3-carboxylic acid] | 2900 nM
20 | Cc1nn(C)c(Cl)c1S(=O)(=O)Nc1ccc(N2CCC(C)(C(=O)O)C2)c2ccccc12 (stereo not drawn) [Example 10, 1-[4-[(5-chloro-1,3-dimethyl-pyrazol-4-yl)sulfonylamino]-1-naphthyl]-3-methyl-pyrrolidine-3-carboxylic acid] | 1000 nM
21 | Cc1c(S(=O)(=O)Nc2ccc(N3CC[C@H](C(=O)O)C3)c3ccccc23)cnn1C1CCCC1 [Example 30, (3S)-1-[4-[(1-cyclopentyl-5-methyl-pyrazol-4-yl)sulfonylamino]-1-naphthyl]pyrrolidine-3-carboxylic acid] | 4100 nM
22 | Cn1ccc2c(S(=O)(=O)Nc3ccc(N4CC[C@@H](C(=O)O)C4)c4ccccc34)cccc21 [Example 64, (3R)-1-[4-[(1-methylindol-4-yl)sulfonylamino]-1-naphthyl]pyrrolidine-3-carboxylic acid] | 500 nM
23 | O=C(O)[C@H]1CCN(c2ccc(NS(=O)(=O)c3cc(Cl)sc3Cl)c3ccccc23)C1 [Example 18, (3S)-1-[4-[(2,5-dichloro-3-thienyl)sulfonylamino]-1-naphthyl]pyrrolidine-3-carboxylic acid] | 9000 nM
24 | Cc1c(S(=O)(=O)Nc2ccc(N3CC[C@@H](C(=O)O)C3)c3ccccc23)sc2cccc(F)c12 [Example 60, (3R)-1-[4-[(4-fluoro-3-methyl-benzothiophen-2-yl)sulfonylamino]-1-naphthyl]pyrrolidine-3-carboxylic acid] | 130 nM
25 | Cc1c(S(=O)(=O)Nc2ccc(N3CC[C@@H](C(=O)O)C3)c3ccccc23)c2ccccc2n1C [Example 63, (3R)-1-[4-[(1,2-dimethylindol-3-yl)sulfonylamino]-1-naphthyl]pyrrolidine-3-carboxylic acid] | 260 nM
26 | Cc1c(S(=O)(=O)Nc2ccc(N3CC[C@H](C(=O)O)C3)c3ccccc23)cnn1CC(C)C [Example 29, (3S)-1-[4-[(1-isobutyl-5-methyl-pyrazol-4-yl)sulfonylamino]-1-naphthyl]pyrrolidine-3-carboxylic acid] | 7000 nM
27 | Cc1c(Cl)cccc1S(=O)(=O)Nc1ccc(N2CC[C@H](C(=O)O)C2)c2ccccc12 [Example 16, (3S)-1-[4-[(3-chloro-2-methylphenyl)sulfonylamino]-1-naphthyl]pyrrolidine-3-carboxylic acid] | 2900 nM
28 | Cc1c(S(=O)(=O)Nc2ccc(N3CC[C@@H](C(=O)O)C3)c3ccccc23)cnn1-c1ccccc1 [Example 39, (3R)-1-[4-[(5-methyl-1-phenyl-pyrazol-4-yl)sulfonylamino]-1-naphthyl]pyrrolidine-3-carboxylic acid] | 6500 nM
29 | O=C(O)[C@@H]1CCN(c2ccc(NS(=O)(=O)c3cc(Cl)cc(Cl)c3)c3ccccc23)C1 [Example 33, (3R)-1-[4-[(3,5-dichlorophenyl)sulfonylamino]-1-naphthyl]pyrrolidine-3-carboxylic acid] | 1700 nM
30 | Cc1c(S(=O)(=O)Nc2ccc(N3CC[C@@H](C(=O)O)C3)c3ccccc23)cnn1C1CCCC1 [Example 50, (3R)-1-[4-[(1-cyclopentyl-5-methyl-pyrazol-4-yl)sulfonylamino]-1-naphthyl]pyrrolidine-3-carboxylic acid] | 2800 nM
31 | CC(=O)Nc1nc(C)c(S(=O)(=O)Nc2ccc(N3CC[C@@H](C(=O)O)C3)c3ccccc23)s1 [Example 31, (3R)-1-[4-[(2-acetamido-4-methyl-thiazol-5-yl)sulfonylamino]-1-naphthyl]pyrrolidine-3-carboxylic acid] | 1900 nM
32 | O=C(O)[C@H]1CCN(c2ccc(NS(=O)(=O)c3ccc(Cl)cc3Cl)c3ccccc23)C1 [Example 19, (3S)-1-[4-[(2,4-dichlorophenyl)sulfonylamino]-1-naphthyl]pyrrolidine-3-carboxylic acid] | 6200 nM
33 | Cc1cc(C)c(C)c(S(=O)(=O)Nc2ccc(N3CCCC(C(=O)O)C3)c3ccccc23)c1C (stereo not drawn) [Example 5, 1-[4-[(2,3,5,6-tetramethylphenyl)sulfonylamino]-1-naphthyl]piperidine-3-carboxylic acid; 2,2,2-trifluoroacetic acid] | 500 nM

From patent EP2997966A1, “Naphthyl Sulfonamide Pyrrolidine Derivatives as KEAP-1 Modulators for the Treatment of Diabetes, Obesity, Dyslipidemia and Related Disorders” (SANOFI, priority 2014, dated 2016)
